The kinase profiling compilation of Christmann-Franck et al. (2016)

Key:
Test in all cases: KINOMEscan competition binding
Details in all cases: compound 10.0 µM
AURKA (human) = AURKA (human) (UniProt O14965)
ERN1 (human) = ERN1 (human) (UniProt O75460)
PRKACA (human) = PRKACA (human) (UniProt P17612)
[1] = target: JAK1 JH1 catalytic (human) (UniProt P23458)
MAP3K9 (human) = MAP3K9 (human) (UniProt P80192)
MYLK2 (human) = MYLK2 (human) (UniProt Q9H1R3)
PAK6 (human) = PAK6 (human) (UniProt Q9NQU5)
PRKCQ (human) = PRKCQ (human) (UniProt Q04759)
PRKAA2 (human) = PRKAA2 (human) (UniProt P54646)
SLK (human) = SLK (human) (UniProt Q9H2G2)
CSF1R (human) = CSF1R (human) (UniProt P07333)
AURKB (human) = AURKB (human) (UniProt Q96GD4)
MAPK11 (human) = MAPK11 (human) (UniProt Q15759)
STK3 (human) = STK3 (human) (UniProt Q13188)
Sequence of STK3 (human) (Q13188 whole entry, looked up): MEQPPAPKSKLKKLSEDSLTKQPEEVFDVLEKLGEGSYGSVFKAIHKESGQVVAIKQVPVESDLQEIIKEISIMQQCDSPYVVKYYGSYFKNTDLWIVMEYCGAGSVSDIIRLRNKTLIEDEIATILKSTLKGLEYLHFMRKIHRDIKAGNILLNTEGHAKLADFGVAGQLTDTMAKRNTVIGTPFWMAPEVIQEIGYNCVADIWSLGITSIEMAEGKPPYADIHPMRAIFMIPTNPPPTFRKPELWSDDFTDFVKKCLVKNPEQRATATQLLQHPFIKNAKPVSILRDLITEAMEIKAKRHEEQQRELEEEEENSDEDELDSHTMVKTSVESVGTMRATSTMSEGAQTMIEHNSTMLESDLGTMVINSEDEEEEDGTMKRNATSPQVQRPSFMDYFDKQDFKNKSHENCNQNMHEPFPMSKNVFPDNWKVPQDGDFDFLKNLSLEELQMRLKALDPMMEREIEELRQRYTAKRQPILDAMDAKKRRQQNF

EPHA1 (human) = EPHA1 (human) (UniProt P21709)
[2] = system: PIK3CA (human), P42336 [I800L]
Sequence of PIK3CA (human), P42336 [I800L] (P42336 whole entry I800L, looked up): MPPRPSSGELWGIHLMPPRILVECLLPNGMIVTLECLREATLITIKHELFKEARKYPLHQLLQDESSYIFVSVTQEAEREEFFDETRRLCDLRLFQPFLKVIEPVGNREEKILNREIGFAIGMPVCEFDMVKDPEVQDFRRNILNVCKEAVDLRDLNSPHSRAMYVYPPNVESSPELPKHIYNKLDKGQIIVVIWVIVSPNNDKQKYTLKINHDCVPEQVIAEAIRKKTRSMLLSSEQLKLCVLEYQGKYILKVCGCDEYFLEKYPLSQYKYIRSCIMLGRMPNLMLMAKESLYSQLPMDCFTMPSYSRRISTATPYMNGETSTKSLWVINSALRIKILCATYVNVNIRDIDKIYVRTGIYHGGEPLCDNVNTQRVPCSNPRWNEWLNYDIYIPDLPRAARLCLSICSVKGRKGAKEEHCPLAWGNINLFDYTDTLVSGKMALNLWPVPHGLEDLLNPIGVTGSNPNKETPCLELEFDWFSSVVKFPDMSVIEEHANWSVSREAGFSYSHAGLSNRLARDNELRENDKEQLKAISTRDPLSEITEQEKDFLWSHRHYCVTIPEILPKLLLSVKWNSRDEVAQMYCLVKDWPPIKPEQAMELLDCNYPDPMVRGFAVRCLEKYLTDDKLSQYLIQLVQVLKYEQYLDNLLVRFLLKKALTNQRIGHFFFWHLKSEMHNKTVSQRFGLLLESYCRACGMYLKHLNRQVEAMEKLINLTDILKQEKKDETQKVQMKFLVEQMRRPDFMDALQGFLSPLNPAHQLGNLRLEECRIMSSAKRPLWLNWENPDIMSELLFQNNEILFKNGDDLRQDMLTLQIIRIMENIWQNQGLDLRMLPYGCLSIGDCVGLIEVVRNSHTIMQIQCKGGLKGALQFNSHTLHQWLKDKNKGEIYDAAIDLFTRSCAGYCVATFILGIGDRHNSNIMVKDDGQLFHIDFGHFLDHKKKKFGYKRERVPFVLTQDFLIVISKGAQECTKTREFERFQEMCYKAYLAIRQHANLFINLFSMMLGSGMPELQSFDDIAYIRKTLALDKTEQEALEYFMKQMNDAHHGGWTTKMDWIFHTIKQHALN

ULK3 (human) = ULK3 (human) (UniProt Q6PHR2)
[3] = system: KIT (human), P10721 [D816V]
BMPR1A (human) = BMPR1A (human) (UniProt P36894)
Sequence of BMPR1A (human) (P36894 whole entry, looked up): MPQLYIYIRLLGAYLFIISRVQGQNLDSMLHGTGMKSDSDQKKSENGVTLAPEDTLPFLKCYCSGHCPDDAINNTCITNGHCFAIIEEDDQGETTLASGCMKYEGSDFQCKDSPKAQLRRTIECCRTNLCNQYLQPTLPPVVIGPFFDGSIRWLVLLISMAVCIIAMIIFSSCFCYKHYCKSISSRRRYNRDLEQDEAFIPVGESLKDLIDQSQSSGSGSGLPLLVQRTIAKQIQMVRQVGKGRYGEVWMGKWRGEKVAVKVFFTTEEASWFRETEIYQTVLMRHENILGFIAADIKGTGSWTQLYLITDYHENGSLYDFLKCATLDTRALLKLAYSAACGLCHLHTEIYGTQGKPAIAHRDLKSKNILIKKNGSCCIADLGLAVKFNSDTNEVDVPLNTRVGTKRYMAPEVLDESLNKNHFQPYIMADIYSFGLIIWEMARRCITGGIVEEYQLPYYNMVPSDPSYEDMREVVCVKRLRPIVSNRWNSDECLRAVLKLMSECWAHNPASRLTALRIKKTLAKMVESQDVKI

SNRK (human) = SNRK (human) (UniProt Q9NRH2)
Sequence of SNRK (human) (Q9NRH2 whole entry, looked up): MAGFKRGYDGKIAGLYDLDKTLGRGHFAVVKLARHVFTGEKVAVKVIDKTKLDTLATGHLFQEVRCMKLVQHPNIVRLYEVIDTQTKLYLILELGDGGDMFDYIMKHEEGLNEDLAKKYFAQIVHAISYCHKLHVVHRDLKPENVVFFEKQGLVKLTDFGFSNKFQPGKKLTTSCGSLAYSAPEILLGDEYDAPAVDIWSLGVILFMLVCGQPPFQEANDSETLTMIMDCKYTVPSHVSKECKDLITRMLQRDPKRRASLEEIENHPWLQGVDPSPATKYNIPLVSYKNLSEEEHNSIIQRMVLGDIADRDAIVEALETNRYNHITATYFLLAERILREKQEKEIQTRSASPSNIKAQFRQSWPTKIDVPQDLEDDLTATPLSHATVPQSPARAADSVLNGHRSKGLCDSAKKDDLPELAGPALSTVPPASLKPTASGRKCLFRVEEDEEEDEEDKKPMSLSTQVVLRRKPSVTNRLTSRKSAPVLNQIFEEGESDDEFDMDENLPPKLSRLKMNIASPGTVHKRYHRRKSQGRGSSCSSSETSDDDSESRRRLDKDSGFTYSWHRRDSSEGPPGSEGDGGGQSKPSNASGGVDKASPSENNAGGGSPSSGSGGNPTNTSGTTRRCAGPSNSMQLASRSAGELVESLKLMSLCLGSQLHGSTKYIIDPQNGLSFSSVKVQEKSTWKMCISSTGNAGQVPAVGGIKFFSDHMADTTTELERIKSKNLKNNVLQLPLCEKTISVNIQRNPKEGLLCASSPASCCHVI

ROS1 (human) = ROS1 (human) (UniProt P08922)
CAMK2B (human) = CAMK2B (human) (UniProt Q13554)
SRC (human) = SRC (human) (UniProt P12931)
RIPK4 (human) = RIPK4 (human) (UniProt P57078)
BLK (human) = BLK (human) (UniProt P51451)
CPK1 (P.falciparum) = system: CPK1 (P.falciparum)
FGFR1 (human) = FGFR1 (human) (UniProt P11362)
TIE1 (human) = TIE1 (human) (UniProt P35590)
Sequence of TIE1 (human) (P35590 whole entry, looked up): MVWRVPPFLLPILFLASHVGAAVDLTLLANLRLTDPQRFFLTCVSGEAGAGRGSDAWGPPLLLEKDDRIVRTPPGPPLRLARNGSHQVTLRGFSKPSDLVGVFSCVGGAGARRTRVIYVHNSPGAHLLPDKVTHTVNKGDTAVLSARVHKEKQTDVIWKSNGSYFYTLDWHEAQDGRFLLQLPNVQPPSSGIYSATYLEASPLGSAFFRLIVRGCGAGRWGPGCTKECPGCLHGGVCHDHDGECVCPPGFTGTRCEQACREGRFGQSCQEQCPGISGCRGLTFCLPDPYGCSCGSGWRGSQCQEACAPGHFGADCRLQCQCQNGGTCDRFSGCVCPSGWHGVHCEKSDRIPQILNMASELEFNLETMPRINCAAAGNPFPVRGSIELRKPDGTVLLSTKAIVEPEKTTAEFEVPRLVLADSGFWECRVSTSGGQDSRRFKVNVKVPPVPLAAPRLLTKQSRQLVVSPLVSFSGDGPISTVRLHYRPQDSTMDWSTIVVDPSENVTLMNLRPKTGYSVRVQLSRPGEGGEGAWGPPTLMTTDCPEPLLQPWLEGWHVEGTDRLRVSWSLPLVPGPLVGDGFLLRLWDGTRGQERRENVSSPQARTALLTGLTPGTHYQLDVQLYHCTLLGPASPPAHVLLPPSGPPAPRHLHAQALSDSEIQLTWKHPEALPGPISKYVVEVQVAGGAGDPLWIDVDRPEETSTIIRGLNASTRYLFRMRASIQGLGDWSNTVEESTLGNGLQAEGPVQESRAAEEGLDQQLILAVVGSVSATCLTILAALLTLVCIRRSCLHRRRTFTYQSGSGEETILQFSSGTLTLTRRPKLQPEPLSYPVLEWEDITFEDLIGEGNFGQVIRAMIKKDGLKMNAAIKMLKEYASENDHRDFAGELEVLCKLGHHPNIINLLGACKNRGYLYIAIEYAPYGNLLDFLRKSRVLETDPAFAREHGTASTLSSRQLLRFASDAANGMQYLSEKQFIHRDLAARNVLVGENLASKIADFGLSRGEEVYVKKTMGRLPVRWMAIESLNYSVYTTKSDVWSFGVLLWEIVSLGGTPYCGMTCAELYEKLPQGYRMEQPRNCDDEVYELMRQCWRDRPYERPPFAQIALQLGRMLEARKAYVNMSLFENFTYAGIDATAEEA

CDK8 (human) = CDK8 (human) (UniProt P49336)
PTK2B (human) = PTK2B (human) (UniProt Q14289)
ULK1 (human) = ULK1 (human) (UniProt O75385)
Sequence of ULK1 (human) (O75385 whole entry, looked up): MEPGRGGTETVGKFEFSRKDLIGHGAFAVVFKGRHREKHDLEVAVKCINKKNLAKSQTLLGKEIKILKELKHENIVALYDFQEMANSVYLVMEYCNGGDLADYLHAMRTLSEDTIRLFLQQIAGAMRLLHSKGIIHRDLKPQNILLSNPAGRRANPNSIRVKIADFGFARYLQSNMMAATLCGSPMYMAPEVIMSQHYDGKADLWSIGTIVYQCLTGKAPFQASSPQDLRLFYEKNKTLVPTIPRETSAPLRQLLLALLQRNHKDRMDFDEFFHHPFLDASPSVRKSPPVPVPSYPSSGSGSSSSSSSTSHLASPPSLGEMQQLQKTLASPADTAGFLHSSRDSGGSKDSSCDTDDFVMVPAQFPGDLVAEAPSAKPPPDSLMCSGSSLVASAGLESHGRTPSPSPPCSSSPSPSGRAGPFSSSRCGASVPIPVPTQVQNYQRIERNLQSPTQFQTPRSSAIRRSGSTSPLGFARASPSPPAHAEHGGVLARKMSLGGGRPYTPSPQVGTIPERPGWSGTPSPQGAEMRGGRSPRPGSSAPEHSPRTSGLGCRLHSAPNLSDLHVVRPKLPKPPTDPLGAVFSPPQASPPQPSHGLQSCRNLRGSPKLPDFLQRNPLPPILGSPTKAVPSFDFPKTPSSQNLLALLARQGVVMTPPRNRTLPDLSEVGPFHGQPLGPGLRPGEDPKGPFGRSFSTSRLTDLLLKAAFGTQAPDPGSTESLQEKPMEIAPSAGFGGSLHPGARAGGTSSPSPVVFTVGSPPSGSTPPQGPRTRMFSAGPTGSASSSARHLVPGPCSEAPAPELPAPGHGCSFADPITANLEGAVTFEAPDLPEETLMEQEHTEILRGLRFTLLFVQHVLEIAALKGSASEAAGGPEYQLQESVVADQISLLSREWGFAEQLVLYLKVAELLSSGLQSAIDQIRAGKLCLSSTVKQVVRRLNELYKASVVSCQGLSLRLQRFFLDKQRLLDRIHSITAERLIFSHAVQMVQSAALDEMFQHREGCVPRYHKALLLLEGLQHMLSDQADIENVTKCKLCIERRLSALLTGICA

PIP4K2B (human) = PIP4K2B (human) (UniProt P78356)
MKNK1 (human) = MKNK1 (human) (UniProt Q9BUB5)
MAPK6 (human) = MAPK6 (human) (UniProt Q16659)
NEK11 (human) = NEK11 (human) (UniProt Q8NG66)
[4] = system: LRRK2 (human), Q5S007 [G2019S]
[5] = system: FGFR3 (human), P22607 [G697C]
RPS6KA6 KD2 (human) = RPS6KA6 KD2 (human) (UniProt Q9UK32)
EPHB4 (human) = EPHB4 (human) (UniProt P54760)
STK38L (human) = STK38L (human) (UniProt Q9Y2H1)
[6] = system: MET (human), P08581 [Y1235D]

COC(=O)Nc1ccc(-c2nc(N3CCOCC3)c3cnn(C4CCN(C(=O)OC)CC4)c3n2)cc1
kinase still bound, per cent of control (AURKA (human)): 85% | kinase still bound, per cent of control (ERN1 (human)): 100% | per cent of control (PRKACA (human)): 100% | kinase still bound, per cent of control [1]: 100% | kinase still bound, per cent of control (MAP3K9 (human)): 100% | kinase still bound, per cent of control (MYLK2 (human)): 100% | kinase still bound, per cent of control (PAK6 (human)): 100% | kinase still bound, per cent of control (PRKCQ (human)): 99% | kinase still bound, per cent of control (PRKAA2 (human)): 100% | kinase still bound, per cent of control (SLK (human)): 70% | kinase still bound, per cent of control (CSF1R (human)): 90% | kinase still bound, per cent of control (AURKB (human)): 100% | kinase still bound, per cent of control (MAPK11 (human)): 80% | kinase still bound, per cent of control (STK3 (human)): 85% | kinase still bound, per cent of control (EPHA1 (human)): 100% | kinase still bound, per cent of control [2]: 0.4% | kinase still bound, per cent of control (ULK3 (human)): 88% | kinase still bound, per cent of control [3]: 100% | kinase still bound, per cent of control (BMPR1A (human)): 100% | kinase still bound, per cent of control (SNRK (human)): 100% | kinase still bound, per cent of control (ROS1 (human)): 76% | kinase still bound, per cent of control (CAMK2B (human)): 100% | kinase still bound, per cent of control (SRC (human)): 95% | kinase still bound, per cent of control (RIPK4 (human)): 90% | kinase still bound, per cent of control (BLK (human)): 100% | kinase still bound, per cent of control (CPK1 (P.falciparum)): 100% | kinase still bound, per cent of control (FGFR1 (human)): 100% | kinase still bound, per cent of control (TIE1 (human)): 99% | per cent of control (CDK8 (human)): 100% | kinase still bound, per cent of control (PTK2B (human)): 92% | kinase still bound, per cent of control (ULK1 (human)): 84% | kinase still bound, per cent of control (PIP4K2B (human)): 100% | kinase still bound, per cent of control (MKNK1 (human)): 37% | kinase still bound, per cent of control (MAPK6 (human)): 100% | kinase still bound, per cent of control (NEK11 (human)): 85% | kinase still bound, per cent of control [4]: 80% | kinase still bound, per cent of control [5]: 100% | kinase still bound, per cent of control (RPS6KA6 KD2 (human)): 96% | kinase still bound, per cent of control (EPHB4 (human)): 94% | kinase still bound, per cent of control (STK38L (human)): 97%

COc1ccc(-c2ccc3c(N4CCOCC4)nc(N4C[C@@H](C)O[C@@H](C)C4)nc3n2)cc1CO
kinase still bound, per cent of control (AURKA (human)): 80% | kinase still bound, per cent of control (ERN1 (human)): 89% | per cent of control (PRKACA (human)): 100% | kinase still bound, per cent of control [1]: 84% | kinase still bound, per cent of control (MAP3K9 (human)): 88% | kinase still bound, per cent of control (MYLK2 (human)): 78% | kinase still bound, per cent of control (PAK6 (human)): 90% | kinase still bound, per cent of control (PRKCQ (human)): 100% | kinase still bound, per cent of control [6]: 100% | kinase still bound, per cent of control (PRKAA2 (human)): 100% | kinase still bound, per cent of control (SLK (human)): 98% | kinase still bound, per cent of control (CSF1R (human)): 90% | kinase still bound, per cent of control (AURKB (human)): 73% | kinase still bound, per cent of control (MAPK11 (human)): 98% | kinase still bound, per cent of control (STK3 (human)): 85% | kinase still bound, per cent of control (EPHA1 (human)): 96% | kinase still bound, per cent of control [2]: 0% | kinase still bound, per cent of control (ULK3 (human)): 100% | kinase still bound, per cent of control [3]: 94% | kinase still bound, per cent of control (BMPR1A (human)): 70% | kinase still bound, per cent of control (SNRK (human)): 48% | kinase still bound, per cent of control (ROS1 (human)): 100% | kinase still bound, per cent of control (CAMK2B (human)): 96% | kinase still bound, per cent of control (SRC (human)): 100% | kinase still bound, per cent of control (RIPK4 (human)): 71% | kinase still bound, per cent of control (BLK (human)): 100% | kinase still bound, per cent of control (CPK1 (P.falciparum)): 100% | kinase still bound, per cent of control (FGFR1 (human)): 100% | kinase still bound, per cent of control (TIE1 (human)): 100% | per cent of control (CDK8 (human)): 100% | kinase still bound, per cent of control (PTK2B (human)): 84% | kinase still bound, per cent of control (ULK1 (human)): 79% | kinase still bound, per cent of control (PIP4K2B (human)): 100% | kinase still bound, per cent of control (MKNK1 (human)): 36% | kinase still bound, per cent of control (MAPK6 (human)): 84% | kinase still bound, per cent of control (NEK11 (human)): 72% | kinase still bound, per cent of control [4]: 100% | kinase still bound, per cent of control [5]: 77% | kinase still bound, per cent of control (RPS6KA6 KD2 (human)): 93% | kinase still bound, per cent of control (EPHB4 (human)): 100% | kinase still bound, per cent of control (STK38L (human)): 95%
